Results as given in patent publication US20120328569A1, “INHIBITORS OF HEPATITIS C VIRUS NS5B POLYMERASE” (priority 2010, published 2012).

Each compound was assayed on HCV genotype 1b replicon (assay: HCV replicon assay, cell ELISA with antibody to replicon-encoded NS3/4A (genotype 1b replicon)). Conditions: Hepatitis C virus, 96 h, read-out: Replicon 1b IC50 (nM), HCV genotype 1b replicon cells, 96 hours incubation, NS3/4A ELISA readout.
Format: cell-based, hepatitis C virus
Outline: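 An ELISA on lysed cells, using an antibody against NS3/4A protease, served as the proxy for replicon RNA. Cells had first been exposed for 96 h to serially diluted compound in G418-free conditions. Percent of DMSO control was fitted with a four-parameter function to give IC50.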

Structure (SMILES) | IC50
CNC(=O)c1c(-c2ccc(F)cc2)oc2cc(N(C)S(C)(=O)=O)c(-c3cccc(-c4nc5ccc(NS(C)(=O)=O)cc5o4)c3)cc12 [Example 281, 2-(4-fluorophenyl)-N-methyl-6-(N-methylmethylsulfonamido)-5-(3-(6-(methylsulfonamido)benzo[d]oxazol-2-yl)phenyl)benzofuran-3-carboxamide] | 3.3 nM
CNC(=O)c1c(-c2ccc(F)cc2)oc2cc(N(C)S(C)(=O)=O)c(-c3cccc(-c4nc5ccc(NC(C)=O)cc5o4)c3)cc12 [Example 282] | 2.3 nM
CNC(=O)c1c(-c2ccc(F)cc2)oc2cc(N(C)S(C)(=O)=O)c(-c3cccc(-c4nc5ccc(NC(=O)c6ccccc6)cc5o4)c3)cc12 [Example 283] | 17.2 nM
CNC(=O)c1c(-c2ccc(F)cc2)oc2cc(N(C)S(C)(=O)=O)c(-c3cccc(-c4nc5ccc(NS(=O)(=O)c6ccccc6)cc5o4)c3)cc12 [Example 284] | 5.3 nM
CNC(=O)c1c(-c2ccc(F)cc2)oc2cc(N(C)S(C)(=O)=O)c(-c3cccc(-c4nc5ccc(NC(=O)[C@@H]6CCCN6C(=O)OC(C)(C)C)cc5o4)c3)cc12 [Example 285] | 10.2 nM
CNC(=O)c1c(-c2ccc(F)cc2)oc2cc(N(C)S(C)(=O)=O)c(-c3cccc(-c4nc5cc(NS(=O)(=O)c6ccccc6)ccc5o4)c3)cc12 [Example 286] | 5.8 nM
CNC(=O)c1c(-c2ccc(F)cc2)oc2cc(N(C)S(C)(=O)=O)c(-c3cc(F)cc(-c4nc5ccccc5s4)c3)cc12 [Example 289] | 5.4 nM
CNC(=O)c1c(-c2ccc(F)cc2)oc2cc(N(C)S(C)(=O)=O)c(-c3cc(-c4nc5ccccc5s4)ccc3F)cc12 [Example 290] | 6.9 nM
CNC(=O)c1c(-c2ccc(F)cc2)oc2cc(N(C)S(C)(=O)=O)c(-c3cccc(-c4nc5cc(F)ccc5s4)c3)cc12 [Example 292] | 5.9 nM
CNC(=O)c1c(-c2ccc(F)cc2)oc2cc(N(C)S(C)(=O)=O)c(-c3ccc(F)c(-c4nc5ccc(F)cc5s4)c3)cc12 [Example 293] | 8.6 nM
CNC(=O)c1c(-c2ccc(F)cc2)oc2cc(N(C)S(C)(=O)=O)c(-c3ccc(F)c(-c4nc5ccc(C)cc5s4)c3)cc12 [Example 294] | 10 nM
CNC(=O)c1c(-c2ccc(F)cc2)oc2cc(N(C)S(C)(=O)=O)c(-c3cccc(-c4nc5cccc(C#N)c5s4)c3)cc12 [Example 295] | 4.1 nM
CNC(=O)c1c(-c2ccc(F)cc2)oc2cc(N(C)S(C)(=O)=O)c(-c3ccc(F)c(-c4nc5ccccc5s4)c3F)cc12 [Example 296] | 64.1 nM
CNC(=O)c1c(-c2ccc(F)cc2)oc2cc(N(C)S(C)(=O)=O)c(-c3cccc(-c4nc5ccc(CN)cc5s4)c3)cc12 [Example 297, 5-(3-(6-(aminomethyl)benzo[d]thiazol-2-yl)phenyl)-2-(4-fluorophenyl)-N-methyl-6-(N-methylmethylsulfonamido)benzofuran-3-carboxamide] | 20.5 nM
CNC(=O)c1c(-c2ccc(F)cc2)oc2cc(N(C)S(C)(=O)=O)c(-c3cccc(-c4nc5ccc(CN(C)C)cc5s4)c3)cc12 [Example 298, 5-(3-(6-((dimethylamino)methyl)benzo[d]thiazol-2-yl)phenyl)-2-(4-fluorophenyl)-N-methyl-6-(N-methylmethylsulfonamido)benzofuran-3-carboxamide] | 6 nM
CNC(=O)c1c(-c2ccc(F)cc2)oc2cc(N(C)S(C)(=O)=O)c(-c3cccc(-c4nc5cccnc5[nH]4)c3)cc12 [Example 299, 5-(3-(3H-imidazo[4,5-b]pyridin-2-yl)phenyl)-2-(4-fluorophenyl)-N-methyl-6-(N-methylmethylsulfonamido)benzofuran-3-carboxamide] | 3.3 nM
CNC(=O)c1c(-c2ccc(F)cc2)oc2cc(N(C)S(C)(=O)=O)c(-c3ccc(F)c(-c4nc5ccccc5[nH]4)c3)cc12 [Example 300] | 1.5 nM
CNC(=O)c1c(-c2ccc(F)cc2)oc2cc(N(C)S(C)(=O)=O)c(-c3ccc(F)c(-c4nc5cc(F)ccc5[nH]4)c3)cc12 [Example 301] | 1.9 nM
CNC(=O)c1c(-c2ccc(F)cc2)oc2cc(N(C)S(C)(=O)=O)c(-c3ccc(F)c(-c4nc5cc(C)ccc5[nH]4)c3)cc12 [Example 302] | 3.1 nM
CNC(=O)c1c(-c2ccc(F)cc2)oc2cc(N(C)S(C)(=O)=O)c(-c3cccc(-c4nc5c(C)cccc5[nH]4)c3)cc12 [Example 303] | 1.8 nM
CNC(=O)c1c(-c2ccc(F)cc2)oc2cc(N(C)S(C)(=O)=O)c(-c3cccc(-c4nc5c(F)cccc5[nH]4)c3)cc12 [Example 304] | 1.3 nM
CNC(=O)c1c(-c2ccc(F)cc2)oc2cc(N(C)S(C)(=O)=O)c(-c3cc(F)cc(-c4nc5cccnc5[nH]4)c3)cc12 [Example 305] | 1.1 nM
CNC(=O)c1c(-c2ccc(F)cc2)oc2cc(N(C)S(C)(=O)=O)c(-c3cc(F)cc(-c4nc5ccc(OC)nc5[nH]4)c3)cc12 [Example 306] | 28.8 nM
CNC(=O)c1c(-c2ccc(F)cc2)oc2cc(N(C)S(C)(=O)=O)c(-c3cc(F)cc(-c4nc5c(C)ccnc5[nH]4)c3)cc12 [Example 307] | 2.4 nM
CNC(=O)c1c(-c2ccc(F)cc2)oc2cc(N(C)S(C)(=O)=O)c(-c3ccc(F)c(-c4nc5cccnc5[nH]4)c3)cc12 [Example 308] | 2.5 nM
CNC(=O)c1c(-c2ccc(F)cc2)oc2cc(N(C)S(C)(=O)=O)c(-c3ccc(F)c(-c4nc5ccc(OC)nc5[nH]4)c3)cc12 [Example 309] | 3.7 nM
CNC(=O)c1c(-c2ccc(F)cc2)oc2cc(N(C)S(C)(=O)=O)c(-c3ccc(F)c(-c4nc5c(C)ccnc5[nH]4)c3)cc12 [Example 310] | 1.8 nM

Structure (SMILES) | IC50
CNC(=O)c1c(-c2ccc(F)cc2)oc2cc(N(C)S(C)(=O)=O)c(-c3ccc(F)c(-c4nc5cc(Cl)cnc5[nH]4)c3)cc12 [Example 311] | 1.7 nM
CNC(=O)c1c(-c2ccc(F)cc2)oc2cc(N(C)S(C)(=O)=O)c(-c3ccc(OC)c(-c4nc5cccnc5[nH]4)c3)cc12 [Example 312] | 1.1 nM
CNC(=O)c1c(-c2ccc(F)cc2)oc2cc(N(C)S(C)(=O)=O)c(-c3cc(OC)cc(-c4nc5cccnc5[nH]4)c3)cc12 [Example 314] | 1.5 nM
CNC(=O)c1c(-c2ccc(F)cc2)oc2cc(N(C)S(C)(=O)=O)c(-c3cc(OC)cc(-c4nc5ccc(OC)nc5[nH]4)c3)cc12 [Example 315] | 4.5 nM
CNC(=O)c1c(-c2ccc(F)cc2)oc2cc(N(C)S(C)(=O)=O)c(-c3cc(OC)cc(-c4nc5c(C)ccnc5[nH]4)c3)cc12 [Example 316] | 2.8 nM
CNC(=O)c1c(-c2ccc(F)cc2)oc2cc(N(C)S(C)(=O)=O)c(-c3cc(OC)cc(-c4nc5cc(Cl)cnc5[nH]4)c3)cc12 [Example 317] | 2.9 nM
CNC(=O)c1c(-c2ccc(F)cc2)oc2cc(N(C)S(C)(=O)=O)c(-c3cccc(-c4nc5c(C)ccnc5[nH]4)c3O)cc12 [Example 318] | 18.7 nM
CNC(=O)c1c(-c2ccc(F)cc2)oc2cc(N(C)S(C)(=O)=O)c(-c3ccc(Cl)c(-c4nc5cccnc5[nH]4)c3)cc12 [Example 319] | 13.6 nM
CNC(=O)c1c(-c2ccc(F)cc2)oc2cc(N(C)S(C)(=O)=O)c(-c3ccc(Cl)c(-c4nc5ccc(OC)nc5[nH]4)c3)cc12 [Example 320] | 13.1 nM
CNC(=O)c1c(-c2ccc(F)cc2)oc2cc(N(C)S(C)(=O)=O)c(-c3ccc(Cl)c(-c4nc5c(C)ccnc5[nH]4)c3)cc12 [Example 321] | 6.6 nM
CNC(=O)c1c(-c2ccc(F)cc2)oc2cc(N(C)S(C)(=O)=O)c(-c3ccc(Cl)c(-c4nc5cc(Cl)cnc5[nH]4)c3)cc12 [Example 322] | 19.5 nM
CNC(=O)c1c(-c2ccc(F)cc2)oc2cc(N(C)S(C)(=O)=O)c(-c3cc(C#N)cc(-c4nc5cccnc5[nH]4)c3)cc12 [Example 323] | 2.4 nM
CNC(=O)c1c(-c2ccc(F)cc2)oc2cc(N(C)S(C)(=O)=O)c(-c3cc(C#N)cc(-c4nc5ccc(OC)nc5[nH]4)c3)cc12 [Example 324] | 3.5 nM
CNC(=O)c1c(-c2ccc(F)cc2)oc2cc(N(C)S(C)(=O)=O)c(-c3cc(C#N)cc(-c4nc5c(C)ccnc5[nH]4)c3)cc12 [Example 325] | 3.2 nM
CNC(=O)c1c(-c2ccc(F)cc2)oc2cc(N(C)S(C)(=O)=O)c(-c3cccc(-c4nc5ccc(OC)nc5[nH]4)c3)cc12 [Example 327] | 3.8 nM
CNC(=O)c1c(-c2ccc(F)cc2)oc2cc(N(C)S(C)(=O)=O)c(-c3cccc(-c4nc5ccc(=O)[nH]c5[nH]4)c3)cc12 [Example 328] | 13.5 nM
CNC(=O)c1c(-c2ccc(F)cc2)oc2cc(N(C)S(C)(=O)=O)c(-c3cccc(-c4nc5ccc(OS(C)(=O)=O)nc5[nH]4)c3)cc12 [Example 329] | 4.9 nM
CNC(=O)c1c(-c2ccc(F)cc2)oc2cc(N(C)S(C)(=O)=O)c(-c3cccc(-c4nc5c(C)ccnc5[nH]4)c3)cc12 [Example 330] | 2.7 nM
CNC(=O)c1c(-c2ccc(F)cc2)oc2cc(N(C)S(C)(=O)=O)c(-c3cccc(-c4nc5cc(Cl)cnc5[nH]4)c3)cc12 [Example 331] | 1.8 nM
CNC(=O)c1c(-c2ccc(F)cc2)oc2cc(N(C)S(C)(=O)=O)c(-c3cccc(-c4nc5ccccc5n4C)c3)cc12 [Example 332] | 9.6 nM
CNC(=O)c1c(-c2ccc(F)cc2)oc2cc(N(C)S(C)(=O)=O)c(-c3cccc(-c4nc5ccncc5[nH]4)c3)cc12 [Example 333] | 6 nM
CNC(=O)c1c(-c2ccc(F)cc2)oc2cc(N(C)S(C)(=O)=O)c(-c3ccc(F)c(-c4nc5ccncc5[nH]4)c3)cc12 [Example 334] | 3.3 nM
CNC(=O)c1c(-c2ccc(F)cc2)oc2cc(N(C)S(C)(=O)=O)c(-c3cc(-c4nc5ccncc5[nH]4)ccc3F)cc12 [Example 335] | 26.4 nM
CNC(=O)c1c(-c2ccc(F)cc2)oc2cc(N(C)S(C)(=O)=O)c(-c3cccc(-c4nc5nccnc5[nH]4)c3)cc12 [Example 336] | 2.7 nM
CNC(=O)c1c(-c2ccc(F)cc2)oc2cc(N(C)S(C)(=O)=O)c(-c3ccc(F)c(-c4nc5nccnc5[nH]4)c3)cc12 [Example 337] | 7.8 nM
CNC(=O)c1c(-c2ccc(F)cc2)oc2cc(N(C)S(C)(=O)=O)c(-c3ccc(OC)c(-c4nc5nccnc5[nH]4)c3)cc12 [Example 338] | 1.5 nM
